Data taken from ChEMBL document CHEMBL3044881, “Synthesis and biological evaluation of novel series of chalcone derivatives as inhibitors of cyclooxygenase and LPS-induced TNF- with potent antioxidant properties” (Med Chem Res, 2012).

Columns and labels:
[1] = system: Radical scavenging activity; assay: Antioxidant activity assessed as DPPH free radical scavenging activity at 10 uM by spectrophotometric analysis; type: functional
Blood [2] = assay: Anti-inflammatory activity in Homo sapiens (human) whole blood assessed inhibition of LPS-induced TNF-alpha production treated 30 min before LPS challenge measured after 5 hr; type: functional, tissue-based
[3] = Antioxidant activity assessed as hydroxyl radical scavenging activity at 10 uM by spectrophotometric analysis; type: functional
Blood [4] = assay: Anti-inflammatory activity in Homo sapiens (human) whole blood assessed inhibition of LPS-induced TNF-alpha production at 1 uM treated 30 min before LPS challenge measured after 5 hr; type: functional
Blood [5] = assay: Anti-inflammatory activity in Homo sapiens (human) whole blood assessed inhibition of LPS-induced TNF-alpha production at 10 uM treated 30 min before LPS challenge measured after 5 hr; type: functional
[6] = Antioxidant activity assessed as reduction of K3Fe(CN)6 to Fe2+ at 10 uM after 10 min; type: functional; set-up: scale not given: the % may be the effect or the level left
[7] = biological target: T1, Beta-glucuronidase (Homo sapiens) (UniProt P08236); assay: Inhibition of beta-glucuronidase (unknown origin) using p-nitrophenyl-beta-D-glucopyranosiduronic acid as substrate at 1 mM after 30 min
T1 sequence (whole entry): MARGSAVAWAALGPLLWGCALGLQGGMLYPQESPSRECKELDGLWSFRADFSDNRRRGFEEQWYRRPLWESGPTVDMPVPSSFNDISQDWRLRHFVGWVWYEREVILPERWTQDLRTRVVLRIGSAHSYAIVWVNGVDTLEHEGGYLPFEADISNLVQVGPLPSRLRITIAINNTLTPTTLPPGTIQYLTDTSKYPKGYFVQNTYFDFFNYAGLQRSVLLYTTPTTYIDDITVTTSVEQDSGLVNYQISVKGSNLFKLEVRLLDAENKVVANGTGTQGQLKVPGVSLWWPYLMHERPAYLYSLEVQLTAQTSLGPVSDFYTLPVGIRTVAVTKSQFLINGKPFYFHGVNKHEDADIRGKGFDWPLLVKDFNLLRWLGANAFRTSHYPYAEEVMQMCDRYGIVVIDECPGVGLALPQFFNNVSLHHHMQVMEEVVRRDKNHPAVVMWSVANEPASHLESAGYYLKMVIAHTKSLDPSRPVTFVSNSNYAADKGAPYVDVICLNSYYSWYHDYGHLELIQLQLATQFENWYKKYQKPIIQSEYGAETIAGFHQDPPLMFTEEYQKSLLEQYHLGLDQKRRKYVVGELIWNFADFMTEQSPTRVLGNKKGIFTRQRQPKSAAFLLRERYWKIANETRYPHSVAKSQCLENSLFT

[8] = biological target: T2, Prostaglandin G/H synthase 2 (Ovis aries) (UniProt P79208); assay: Inhibition of Ovis aries (sheep) COX2 at 1 mM after 5 min by colorimetric analysis
T2 sequence (whole entry): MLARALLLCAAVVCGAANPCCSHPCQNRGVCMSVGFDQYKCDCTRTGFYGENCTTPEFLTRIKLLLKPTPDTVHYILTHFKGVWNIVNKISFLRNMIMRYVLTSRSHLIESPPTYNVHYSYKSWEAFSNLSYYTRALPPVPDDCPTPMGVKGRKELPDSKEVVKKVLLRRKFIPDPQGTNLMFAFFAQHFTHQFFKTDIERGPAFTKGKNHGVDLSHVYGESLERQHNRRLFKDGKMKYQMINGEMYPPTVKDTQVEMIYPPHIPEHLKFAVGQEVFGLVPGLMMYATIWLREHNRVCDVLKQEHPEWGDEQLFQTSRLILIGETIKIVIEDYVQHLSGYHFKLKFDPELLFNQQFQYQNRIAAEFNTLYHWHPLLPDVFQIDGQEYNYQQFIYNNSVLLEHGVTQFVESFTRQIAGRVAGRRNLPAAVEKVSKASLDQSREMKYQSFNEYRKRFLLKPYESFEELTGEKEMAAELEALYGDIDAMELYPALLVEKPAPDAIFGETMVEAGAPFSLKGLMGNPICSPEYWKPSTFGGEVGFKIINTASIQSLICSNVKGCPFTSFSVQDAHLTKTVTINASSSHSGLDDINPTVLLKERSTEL

Trypsin (Homo sapiens) = Trypsin (Homo sapiens) (UniProt P07477+P07478+P35030); assay: Inhibition of trypsin (unknown origin) assessed as hydrolysis of bovine serum albumin at 1 mM after 20 min; type: protein assay
[9] = biological target: T3, Prostaglandin G/H synthase 1 (Ovis aries) (UniProt P05979); conditions: at 1 mM
T3 sequence (whole entry): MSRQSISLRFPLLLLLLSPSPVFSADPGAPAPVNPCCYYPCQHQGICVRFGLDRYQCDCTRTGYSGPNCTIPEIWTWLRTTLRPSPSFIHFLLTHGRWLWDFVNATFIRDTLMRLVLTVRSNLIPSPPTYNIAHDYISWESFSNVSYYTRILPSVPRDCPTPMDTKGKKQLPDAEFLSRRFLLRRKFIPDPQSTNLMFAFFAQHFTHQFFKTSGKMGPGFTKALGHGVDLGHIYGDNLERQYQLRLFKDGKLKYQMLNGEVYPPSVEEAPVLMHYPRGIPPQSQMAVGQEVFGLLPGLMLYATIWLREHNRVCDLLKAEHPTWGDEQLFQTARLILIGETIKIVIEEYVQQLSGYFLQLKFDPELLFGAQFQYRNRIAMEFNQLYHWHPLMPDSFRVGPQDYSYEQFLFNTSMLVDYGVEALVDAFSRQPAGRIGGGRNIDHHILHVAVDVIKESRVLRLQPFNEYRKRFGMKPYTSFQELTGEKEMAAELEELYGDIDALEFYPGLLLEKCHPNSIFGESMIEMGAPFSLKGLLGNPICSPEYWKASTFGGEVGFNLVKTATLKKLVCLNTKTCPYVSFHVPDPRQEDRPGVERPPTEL
Description: Inhibition of Ovis aries (sheep) COX1 at 1 mM after 5 min by colorimetric analysis

[10] = Homo sapiens, Blood, read-out: IC50

Compound | Activity [1] [%] | IC50 (Blood [2]; [10]) [µM] | Activity [3] [%] | inhibition at 1 µM (Blood [4]) [%] | inhibition at 10 µM (Blood [5]) [%] | Activity [6] [%] | IC50 (Blood [2]) | inhibition [7] [%] | inhibition [8] [%] | inhibition (Trypsin (Homo sapiens)) [%] | inhibition [9] [%]
COc1cc(OC)c(C(=O)/C=C/c2ccc(Cl)cc2Cl)c(O)c1Br | 17.3 | 8.9 | 30.2 | 46 | 53 | 17.4 |  |  |  |  | 
COc1cc(OC)c(C(=O)/C=C/c2ccc(Cl)cc2)c(O)c1Br | 18.4 | 1.4 | 38.2 | 43 | 51 | 15.7 |  |  |  |  | 
COc1cc(OC)c(C(=O)/C=C/c2cccc([N+](=O)[O-])c2)c(O)c1Br | 23.7 | 10.1 | 18.8 | 31 | 50 | 26.2 |  |  |  |  | 
COc1cc(OC)c(C(=O)/C=C/c2ccccc2F)c(O)c1Br | 29.9 |  | 16.8 | 24 | 38 | 29.7 | Not Active |  |  |  | 
COc1ccc(OC)c(/C=C/C(=O)c2c(OC)cc(OC)c(Br)c2O)c1 | 23 | 10.9 | 31.6 | 22 | 57 | 22.9 |  |  |  |  | 
COc1cc(/C=C/C(=O)c2c(OC)cc(OC)c(Br)c2O)cc(OC)c1 |  | 11.4 | 23.5 | 25 | 37 | 18.4 |  |  |  |  | 
O=C(O)c1ccccc1O |  |  |  |  |  |  |  | 26.5 |  |  | 
COc1cc(OC)c(C(=O)/C=C/c2cccc(C#N)c2)c(O)c1Br | 27.4 | 0.7 | 25.6 | 26 | 57 | 17.3 |  |  |  |  | 
COc1cc(OC)c(C(=O)/C=C/c2ccc(Cl)c([N+](=O)[O-])c2)c(O)c1Br | 14.3 | 14.2 |  | 34 | 49 | 26 |  |  |  |  | 
C[C@H]1C[C@H]2[C@@H]3CCC4=CC(=O)C=C[C@]4(C)[C@@]3(F)[C@@H](O)C[C@]2(C)[C@@]1(O)C(=O)CO [BETAMETHASONE] |  | 1 |  | 72 | 87 |  |  |  |  |  | 
O=C1O[C@H]([C@@H](O)CO)C(O)=C1O |  |  | 41.2 |  |  | 76.6 |  |  |  |  | 
COc1ccc(/C=C/C(=O)c2c(OC)cc(OC)c(Br)c2O)c(OC)c1 | 20.2 | 10.2 | 28.8 | 21 | 59 | 18.4 |  | 41.3 | 57.8 | 39.5 | 52.4
COc1cc(OC)c(C(=O)/C=C/c2cccc(Br)c2)c(O)c1Br | 24.1 | 8.2 | 38.2 | 13 | 57 | 19.6 |  |  |  |  | 
COc1cc(OC)c(C(=O)/C=C/c2ccccc2C(F)(F)F)c(O)c1Br | 13.7 | 3.2 | 47 | 27 | 52 | 10 |  |  |  |  | 
O=C(O)c1cc(O)c(O)c(O)c1 | 91 |  |  |  |  |  |  |  |  |  | 
COc1cc(OC)c(C(=O)/C=C/c2cccc(F)c2)c(O)c1Br | 12 | 1.2 |  | 36 | 63 | 12.2 |  |  |  |  | 
COc1ccc(/C=C/C(=O)c2c(OC)cc(OC)c(Br)c2O)cc1 | 38.4 | 7.4 | 49.4 | 38 | 53 | 34.3 |  |  |  |  | 
COc1cc(OC)c(C(=O)/C=C/c2ccccc2Cl)c(O)c1Br | 15.8 | 15.9 | 32.3 | 40 | 72 | 14.3 |  |  |  |  | 
COc1cc(OC)c(C(=O)/C=C/c2cccnc2)c(O)c1Br | 21.1 | 0.1 | 44.1 | 45 | 85 | 16.6 |  |  |  |  | 
COc1cc(OC)c(C(=O)/C=C/c2cc[nH]c2)c(O)c1Br | 26.7 | 0.6 |  | 42 | 78 | 26 |  |  |  |  | 
CC(=O)Oc1ccccc1C(=O)O |  |  |  |  |  |  |  |  | 38.5 |  | 
